According to patent US8415312B2, “Compound which is a nystatin derivative” (Biosergen AS, priority 2007, dated 2013):
Values after ≈ are worked out from the molar mass of the structure shown. Values joined by “and” are separate entries in the source; they are usually repeats but may differ in a detail not shown here. Identical values can stand only once.

Tests used:
[1] = test system: erythrocytes; experiment: In vitro toxicity study, haemolysis (Tables 11 and 12); assay type: cell-based, horse; details: for Haemolysis of erythrocytes, Mean ± SE: 5 μg/mL (Table 11); for Haemolysis of erythrocytes: 5 μg/mL, individual blood samples # 1-3 (Table 11)
[2] = test system: Candida albicans ATCC 14053; experiment: Antifungal susceptibility study (1), broth microdilution MIC; assay type: cell-based; details: lowest concentration preventing any visible growth, read at 48 hours, 35° C., RPMI 1640 pH 7.0
Outline: (§1)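 Broth microdilution in test medium at pH 7.0 with two-fold compound dilutions (DMSO stocks diluted 50-fold into medium), inoculated with freshly grown yeast cultures. Plates were incubated without agitation at 35° C. for C. albicans or 25° C. for C. humicolus. MIC was taken as the concentration with no visible growth, read at 48 hours.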

[3] = test system: Cryptococcus humicolus ATCC 9949; experiment: as above; assay type: cell-based; details: lowest concentration preventing any visible growth, read at 48 hours, 25° C., RPMI 1640 pH 7.0
Outline: as §1

[4] = test system: mice (C57B1/6xDBA/2)F1 B6D2F1; details: single injection into tail vein, probit analysis
Experimental: Male mice of hybrids of first generation (C57B1/6xDBA/2)F1 B6D2F1, weight 20-22 g., received from the Central farm. “Kryukovo” of Russian Academies of Medical Science (RAMS) were used. Animals were maintained in a vivarium in plastic cages (with hardwood bedding in environmentally controlled conditions: 24±1° C., 12/12 hours light/dark cycle) on a standard diet of bricketed forages with easy access to drinking water (ad libitum). After a 2-week quarantine period, healthy animals were used in experimental work.
The solutions were prepared as follows: dry antibiotic substances (5 mg) were mixed with dry sodium deoxycholate (4.1 mg) in a sterile glass vial. 10 mL of phosphate buffer (NaH2PO4—1.59 g; Na2HPO4—0.96 g; H2O—to 100 mL) was added to the mix and the suspension was immediately subjected to vigorous shaking for 10 minutes until homogeneous suspensions were formed.
Preparations of amphotericin B and S44HP were also prepared in the same way.
The antibiotic preparations were singly injected into the mice's tail vein within 1-1.5 hours after the preparation of solutions. […] Each antibiotic was used in a range of doses resulting in 0% to 100% lethality and a minimum of 3 intermediate doses. Animals were randomized into groups, each containing 6 mice.

[5] = Solubility in 5% glucose; assay type: physicochemical
[6] = test system: Candida albicans (strain 14053 ATCC); experiment: Model of the candidiasis sepsis of mice, kidney burden; assay type: in vivo; details: for Candida albicans burden in kidneys (Mean): day 5, n=3 mice
Experimental: In experiments used female mice of hybrids of first generation (C57B1/6xDBA/2)F1 (B6D2F1), weight 18-20 g., received from the Central farm “Kryukovo” of Russian Academies of Medical Science (RAMS). Animals were maintained in Institute' vivarium in plastic cages (with hardwood bedding in environmentally controlled room: 24±1° C., 12/12 hours light/dark cycle) on a standard diet of bricketed forages with an easy approach to drinking water (ad libitum). After 2-week quarantine healthy animals were used in experimental work.
A preparation of comparison was amphotericin B (pure). Solutions of tested preparations prepared ex tempore by the technique specified by the customer.
Animals were housed on 3 mice and infected intravenously with culture Candida albicans in a doze 1.0 million CFU/mouse in volume of 0.1 ml. It is necessary to note, that doze Candida albicans remained a constant in all experiments. In 30 minutes after infection to mice carried out the first intravenous introduction of tested preparations in corresponding dozes in volume of 0.2 ml (with a speed of 0.2 ml/30 second).
Experiment has been planned in such a manner that in each experiment one doze (both for amphotericin B was used, and for tested preparations), each doze entered daily within four days, since day of infection (0, 1, 2 and 3 days). At each experiment there was a group untreated, infected with Candida albicans animals. Also there was a group “placebo”, intact (not infected) animals, which intravenously (in the same volume as medical preparations) injected 0.2 ml of solvent—phosphatic buffer +5% glucose (1:1).
On the post challenge 5th day of experiment, mice were weighed and euthanized (killed) by a cervical dislocation. Then, in sterile conditions, Candida albicans burdens were determined by viable counting of homogenates from the kidneys. The kidneys, which were removed aseptically and weighed, pounded in porcelain mortars with sterile corundum, did dilutions of the received suspensions and sowed on Petri dishes with agar Saburo, incubated for 48 hours at temperature 35° C., then counted up developed colonies Candida albicans and recalculated their quantity on 1 g of kidney' tissue. The first dilution was 10^−1. Zero result at this cultivation accepted for 5 CFU/g.
For the basic criterion of an assessment of the investigated preparations the maximal effect of the Amphotricin B was accepted (effective dose, ED).
For significant accepted distinctions of average at P≦0.05 at comparison by Student t-criterion.

[7] = test system: human blood erythrocytes; experiment: In vitro toxicity study, haemolysis (Table 10); assay type: cell-based; details: for Haemolysis of human blood erythrocytes: individual blood samples # 1-3, listed as Amp B
[8] = dose 0.08 mg/kg/d i.v. for four days
[9] = dose 0.16 mg/kg/d i.v. for four days
[10] = dose 0.31 mg/kg/d i.v. for four days
[11] = dose 0.62 mg/kg/d i.v. for four days
[12] = dose 1.25 mg/kg/d i.v. for four days
[13] = dose 2.5 mg/kg/d i.v. for four days

Compound | Haemolysis of erythrocytes, Mean ± SE [1] [%] | MIC Candida albicans ATCC 14053 [2] [µg/mL] | MIC Cryptococcus humicolus ATCC 9949 [3] [µg/mL] | LD50 [4] [mg/kg] | MTD [4] [mg/kg] | Candida albicans burden in kidneys (Mean) [6, 8] [CFU/g] | Candida albicans burden in kidneys (Mean) [6, 9] [CFU/g] | Candida albicans burden in kidneys (Mean) [6, 10] [CFU/g] | Candida albicans burden in kidneys (Mean) [6, 11] [CFU/g] | Candida albicans burden in kidneys (Mean) [6, 12] [CFU/g] | Candida albicans burden in kidneys (Mean) [6, 13] [CFU/g] | other results
C[C@@H]1[C@H](O)[C@@H](C)/C=C/C=C/C=C/C=C/C=C/C=C/C=C/[C@H](O[C@@H]2O[C@H](C)[C@@H](O)[C@H](N)[C@@H]2O)C[C@@H]2O[C@](O)(C[C@@H](O)C[C@@H](O)[C@H](O)CC[C@@H](O)C[C@@H](O)CC(=O)O[C@H]1C)C[C@H](O)[C@H]2C(=O)O [Amphotericin B, reference compound] | 39.7 ± 1.2 | 1 (≈ 1.08 µM) | 1 (≈ 1.08 µM) | 2.8 | 2.01 | 105000 | 85667 | 34667 | 10667 | 1667 |  | Haemolysis of erythrocytes ([1]; listed as Amp B): 39% and 38% and 42%; solubility in 5% glucose [5]: < 1000 µg/mL; dose of maximal activity as % from MTD ([6]; 1.25 mg/kg/d): ≈ 62%; dose of maximal activity (effective dose, ED) ([6]; highest studied dose, criterion of activity): 1.25 mg/kg/day; Haemolysis of human blood erythrocytes, MEAN ± SE ([7]; 2 μg/mL): 6.1 ± 1.0%; Haemolysis of human blood erythrocytes ([7]; 2 μg/mL): 4.4% and 5.9% and 8.0%; Haemolysis of human blood erythrocytes, MEAN ± SE ([7]; 5 μg/mL): 30.3 ± 0.6%; Haemolysis of human blood erythrocytes ([7]; 5 μg/mL): 30% and 29.5% and 31.5%
CC1C=CC=CC=CC=CC=CC=CC=CC(OC2OC(C)C(O)C(N)C2O)CC2OC(O)(CC(O)C(O)CCC(O)CC(O)CC(O)CC(=O)OC(C)C(C)C1O)CC(O)C2C (stereo not shown) [Compound 1] |  | 1 (≈ 1.12 µM) | 1 (≈ 1.12 µM) | 15.4 | 7.8 |  |  |  |  |  |  | 
CC1C=CC=CC=CC=CC=CC=CC=CC(OC2OC(C)C(O)C(N)C2O)CC2OC(O)(CC(O)C(O)CCC(O)CC(O)CC(O)CC(=O)OC(C)C(C)C1O)CC(O)C2C(=O)NCCCN(C)C (stereo not shown) [Compound 11, S44HP DMAP Amide] | 3.2 ± 0.1 | 1 (≈ 0.992 µM) | 1 (≈ 0.992 µM) | 16.4 | 11.9 |  |  |  |  |  |  | Haemolysis of erythrocytes [1]: 3% and 3.4% and 3.3%
CC1C=CC=CC=CC=CC=CC=CC=CC(OC2OC(C)C(O)C(N)C2O)CC2OC(O)(CC(O)C(O)CCC(O)CC(O)CC(O)CC(=O)OC(C)C(C)C1O)CC(O)C2C.NC(CCC(=O)O)C(=O)O [Compound 29, Compound 1 L-glutamate] |  | 1 | 1 | 17.8 | 11.0 |  | 102667 |  | 12500 | 2557 | 133 | Candida albicans burden in kidneys (Mean) ([6]; dose 5 mg/kg/d i.v. for four days, zero result accepted for 5 CFU/g): 5 CFU/g
CC1O[C@@H](O[C@H]2/C=C/C=C/C=C/C=C/C=C/C=C/C=C/[C@H](C)[C@@H](O)[C@@H](C)[C@H](C)OC(=O)C[C@H](O)C[C@H](O)C[C@H](O)CC[C@@H](O)[C@H](O)C[C@]3(O)C[C@H](O)[C@@H](C)[C@H](C2)O3)[C@H](O)C(NC(=O)[C@@H](N)CCCCN)[C@@H]1O (stereo partly drawn) [Compound 51, N-L-Lysyl-Compound 1] |  | 1 (≈ 0.978 µM) | 1 (≈ 0.978 µM) | 5.3 | 4.48 | 56667 |  | 22667 | 17833 | 9400 | 5 | 
